Data on 7 compounds can be found in EPA's ToxRefDB 2.

The structures appear in SMILES notation. Some results are limits rather than exact numbers.

In series [1] the test system is rat. To be noted: Prenatal developmental toxicity study, wistar, Oral, Feed, dose end: 21 GD.
Series [2] has as its system rat. To be noted: Prenatal developmental toxicity study, wistar, Oral, Gavage/Intubation, dose end: 20 GD.
Series [3] has as its system rat. To be noted: Chronic toxicity, sprague dawley, Oral, Feed, dose end: 2 year, group: systemic.
Series [4] deals with mouse. To be noted: Developmental neurotoxicity study; cd1; Injection; Subcutaneous; dose end: 42 PND; group: cannot be grouped; systemic / in life observation / body weight / offspring (pup) weight.
For series [5], the system named is rat. To be noted: Multigenerational reproductive toxicity study, wistar, Oral, Gavage/Intubation, dose end: 2 generation.
Series [6] deals with rat. To be noted: Prenatal developmental toxicity study, wistar, Oral, Gavage/Intubation, dose end: 19 GD.
Series [7] concerns rat. To be noted: Prenatal developmental toxicity study, wistar, Oral, Gavage/Intubation, dose end: 20 GD. This is another data set of the same source.
Series [8] deals with rat. To be noted: Prenatal developmental toxicity study; wistar; Dermal; Topical; dose end: 15 GD; group: developmental; developmental / developmental malformation / bone / supernumerary.
Another series relates to rabbit. To be noted: Prenatal developmental toxicity study, himalayan, Oral, Gavage/Intubation, dose end: 18 GD.
In series [9] the test system is rat. To be noted: Subchronic oral toxicity in rodents, fischer, Feed, dose end: 13 week.
In series [10] the test system is mouse. To be noted: Subchronic oral toxicity in rodents, b6c3f1, Feed, dose end: 13 week, group: systemic.
Series [11] concerns rat. To be noted: Developmental neurotoxicity study; sprague dawley; Oral; Gavage/Intubation; dose end: 42 PND; group: cannot be grouped; developmental / offspring survival late / [other] / [other].
In another series the test system is dog. To be noted: Sub-acute repeat dose toxicity, beagle, Oral, Gavage/Intubation, dose end: 4 week, group: systemic.
Series [12] deals with rat. To be noted: Sub-acute repeat dose toxicity, sprague dawley, Oral, Gavage/Intubation, dose end: 1 month, group: systemic.
Series [13] relates to rat. To be noted: Combined chronic toxicity/carcinogenicity, sprague dawley, Oral, Feed, dose end: 2 year, group: systemic.
Series [14] relates to rat. To be noted: Peri- and post-natal toxicity study (Segment III), sprague dawley, Oral, Gavage/Intubation, dose end: 43 PND.
[15] abbreviates: group: developmental, systemic / in life observation / body weight / fetal weight.
The mark [16] stands for this setting: group: maternal, reproductive / reproductive performance / postimplantation loss / postimplantation loss + reproductive / reproductive performance / ….
[17] abbreviates: group: developmental, developmental / developmental malformation / great vessels / [other] + developmental / developmental malformation / bone / fused + ….
Where [18] appears, read: group: maternal, reproductive / offspring survival early / litter viability other / total litter loss + systemic / in life observation / body weight / body ….
Where [19] appears, read: systemic / pathology microscopic / pituitary gland / adenoma/carcinoma combined + systemic / in life observation / body weight / body weight….
Setting [20] is: group: offspring, systemic / in life observation / body weight / offspring (pup) weight + systemic / organ weight / spleen / absolute + systemic / organ ….
Setting [21] is: group: parental, systemic / organ weight / liver / absolute + systemic / organ weight / thymus / absolute + systemic / organ weight / thymus / relative to ….
[22] abbreviates: group: reproductive, reproductive / reproductive performance / estrous cycle / length + reproductive / reproductive performance / estrous cycle / periodicity + ….
Where [23] appears, read: group: developmental, developmental / developmental malformation / bone / delayed ossification + developmental / developmental malformation / bone / supernumerary….
Where [24] appears, read: group: maternal, systemic / in life observation / body weight / body weight gain + systemic / in life observation / food consumption / food consumption.
Setting [25] is: group: maternal, systemic / in life observation / body weight / body weight gain + systemic / in life observation / food consumption / food consumption + ….
Where [26] appears, read: group: developmental, developmental / developmental malformation / bone / supernumerary.
The mark [27] stands for this setting: group: maternal, systemic / in life observation / clinical signs / abnormal respiratory sounds + systemic / in life observation / clinical signs / altered ….
Where [28] appears, read: group: developmental, developmental / developmental malformation / bone / arthrogryposis + developmental / developmental malformation / bone / malformation, total.
[29] abbreviates: group: maternal, reproductive / reproductive performance / resorptions / resorptions + systemic / in life observation / body weight / body weight gain + ….
Setting [30] is: group: maternal, reproductive / reproductive performance / estrous cycle / abnormal.
[31] abbreviates: group: systemic, systemic / hematology / mean corpuscular (cell) volume (mcv) / mean corpuscular (cell) volume (mcv) + systemic / hematology / mean ….
[32] abbreviates: group: systemic, systemic / pathology microscopic / kidney / nephropathy.
The mark [33] stands for this setting: systemic / in life observation / body weight / body weight gain + systemic / in life observation / food consumption / food consumption + ….
Setting [34] is: systemic / organ weight / liver / relative to body weight.
Where [35] appears, read: systemic / clinical chemistry / alanine aminotransferase (alt/sgpt) / alanine aminotransferase (alt/sgpt) + systemic / hematology / blood ….
Setting [36] is: systemic / in life observation / body weight / body weight gain + systemic / in life observation / food consumption / food consumption.
The mark [37] stands for this setting: systemic / in life observation / body weight / body weight.
Where [38] appears, read: systemic / pathology microscopic / preputial gland / atrophy.
The mark [39] stands for this setting: group: developmental, developmental / developmental landmark / vaginal opening / vaginal opening.
Where [40] appears, read: group: maternal, reproductive / reproductive performance / estrous cycle / [other] + reproductive / reproductive performance / estrous cycle / abnormal.
The mark [41] stands for this setting: group: parental, systemic / organ weight / adrenal gland / absolute.

As for `O=c1c(-c2ccc(O)cc2)coc2cc(O)cc(O)c12` [Genistein], the LEL in the series on rat [1] (setting [15]) worked out at 500 mg/kg/day; in the series with rat [1] (setting [16]), 500 mg/kg/day; in the series on rat [2] (group: developmental, developmental / developmental malformation / great vessels / [other]), 150 mg/kg/day; in the series with rat [2] (setting [18]) it was 1000 mg/kg/day; in the series with rat [3] (systemic / organ weight / pituitary gland / absolute + systemic / organ weight / pituitary gland / relative to body weight + systemic / …) it was 5 mg/kg/day. The lowest observed adverse effect level (LOAEL) (usually the lowest dose or exposure tested at which an adverse effect was seen) is over 500 mg/kg/day with rat [1] (setting [15]); over 500 mg/kg/day in the series with rat [1] (setting [16]); over 1000 mg/kg/day in the series with rat [2] (setting [17]); over 1000 mg/kg/day in the series with rat [2] (setting [18]); over 25 mg/kg/day in the series on rat [3] (setting [19]). For the same compound, the NEL was determined as 100 mg/kg/day in the series on rat [1] (setting [15]); 100 mg/kg/day in the series on rat [1] (setting [16]); 20 mg/kg/day with rat [2] (setting [17]); 150 mg/kg/day in the series with rat [2] (setting [18]); 0.25 mg/kg/day in the series with rat [3] (systemic / organ weight / pituitary gland / absolute + systemic / organ weight / pituitary gland / relative to body weight). In addition, the no observed adverse effect level (NOAEL) – broadly, the highest dose or exposure tested at which no adverse effect was seen – in the series with rat [1] (setting [15]) was at least 500 mg/kg/day; in the series with rat [1] (setting [16]) it was at least 500 mg/kg/day; with rat [2] (setting [17]), at least 1000 mg/kg/day; with rat [2] (setting [18]), at least 1000 mg/kg/day; in the series on rat [3] (setting [19]), at least 25 mg/kg/day.
For the compound `O=P1(N(CCCl)CCCl)NCCCO1` (centres undefined) [Cyclophosphamide], in the series on mouse [4], the LEL was found to be 20 mg/kg/day, the LOAEL was over 45 mg/kg/day, the NEL was under 20 mg/kg/day and the no observed adverse effect level (NOAEL) was at least 45 mg/kg/day.
Consider `OC(Cc1ccccc1Cl)(Cn1[nH]cnc1=S)C1(Cl)CC1` (centres undefined) [Prothioconazole], for which the LEL turned out to be 750 mg/kg/day in the series with rat [5] (setting [20]); 100 mg/kg/day in the series on rat [5] (group: parental, systemic / organ weight / thymus / absolute + systemic / organ weight / thymus / relative to body weight + systemic / organ weight / seminal…); 750 mg/kg/day in the series with rat [5] (setting [22]); 1000 mg/kg/day in the series with rat [6] (setting [23]); 200 mg/kg/day in the series on rat [6] (setting [24]); 30 mg/kg/day in the series with rat [7] (setting [26]). In addition, the LEL with rat [7] (setting [27]) was 750 mg/kg/day; in the series with rat [8], 100 mg/kg/day; in the series with rabbit (setting [28]) it was 10 mg/kg/day; in the series on rabbit (setting [29]), 50 mg/kg/day. For the same compound, the lowest observed adverse effect level (LOAEL) in the series on rat [5] (setting [20]) was 750 mg/kg/day; with rat [5] (setting [21]), 750 mg/kg/day; with rat [5] (setting [22]), 750 mg/kg/day; in the series on rat [6] (setting [23]), over 1000 mg/kg/day; with rat [6] (setting [24]) it was 200 mg/kg/day; in the series on rat [7] (setting [26]) it was 30 mg/kg/day. Further, the lowest-observed-adverse-effect level (LOAEL) in the series with rat [7] (setting [27]) was 750 mg/kg/day; with rat [8], 100 mg/kg/day; with rabbit (setting [28]), 10 mg/kg/day; with rabbit (setting [29]), 50 mg/kg/day. Besides, the NEL is 100 mg/kg/day in the series with rat [5] (setting [20]); 10 mg/kg/day in the series on rat [5] (setting [21]); 100 mg/kg/day with rat [5] (setting [22]); 200 mg/kg/day in the series on rat [6] (setting [23]); 40 mg/kg/day in the series with rat [6] (setting [25]); under 30 mg/kg/day in the series with rat [7] (setting [26]). For the same compound, the NEL is 150 mg/kg/day in the series with rat [7] (setting [27]), under 100 mg/kg/day in the series with rat [8], 2 mg/kg/day with rabbit (setting [28]) and 10 mg/kg/day in the series on rabbit (setting [29]). Moreover, the NOAEL with rat [5] (setting [20]) is 100 mg/kg/day; with rat [5] (setting [21]), 100 mg/kg/day; with rat [5] (setting [22]) it was 100 mg/kg/day; in the series with rat [6] (setting [23]), at least 1000 mg/kg/day; in the series with rat [6] (setting [25]), 40 mg/kg/day; in the series with rat [7] (setting [26]) it was under 30 mg/kg/day. The no-observed-adverse-effect level (NOAEL) in the series with rat [7] (setting [27]) was 150 mg/kg/day; with rat [8], under 100 mg/kg/day; with rabbit (setting [28]), 2 mg/kg/day; in the series on rabbit (setting [29]) it was 10 mg/kg/day.
Consider `Cc1cccc([N+](=O)[O-])c1` [3-Nitrotoluene], for which the LEL in the series with rat [9] (setting [30]) was determined as 336 mg/kg/day; with rat [9] (setting [32]), 46 mg/kg/day; with mouse [10] (setting [34]) it was 114 mg/kg/day. Further, the results for the lowest-observed-adverse-effect level (LOAEL) in the series on rat [9] (setting [30]), in the series with rat [9] (setting [31]) and in the series with mouse [10] (systemic / in life observation / body weight / body weight gain) were over 638 mg/kg/day, 336 mg/kg/day and 743 mg/kg/day, respectively. The NEL is 172 mg/kg/day with rat [9] (setting [30]), under 46 mg/kg/day in the series with rat [9] (setting [32]) and under 114 mg/kg/day in the series on mouse [10] (setting [34]). In addition, the NOAEL in the series on rat [9] (setting [30]) was at least 638 mg/kg/day; in the series on rat [9] (setting [31]) it was 172 mg/kg/day; in the series on mouse [10] (setting [33]), 398 mg/kg/day.
On to `O=C([O-])c1ccccc1O.[Na+]` [Sodium salicylate], for which, in the series with rat [11], the LEL was found to be 12.5 mg/kg/day, the lowest observed adverse effect level (LOAEL) is over 150 mg/kg/day, the NEL came to 4.2 mg/kg/day and the no-observed-adverse-effect level (NOAEL) is at least 150 mg/kg/day.
For the compound `CC(=O)O.COCCOc1cc2cc(C(=O)NC3CCN(C(C)C)CC3)n(CC(=O)Nc3ccc(Cl)cn3)c2cn1`, in the series on dog (setting [35]), the LOAEL was 75 mg/kg/day, the NEL is 3 mg/kg/day and the NOAEL stood at 15 mg/kg/day. The LEL in the series on dog (systemic / organ weight / liver / absolute + systemic / organ weight / liver / relative to body weight) is 15 mg/kg/day. Besides, in the series on rat [12] (setting [36]), the LEL is 10 mg/kg/day and the NEL was under 10 mg/kg/day. For the same compound, in the series on rat [12] (setting [33]), the lowest observed adverse effect level (LOAEL) was 30 mg/kg/day and the NOAEL is 10 mg/kg/day.
For the compound `C#C[C@]1(O)CC[C@H]2[C@@H]3CCc4cc(O)ccc4[C@H]3CC[C@@]21C` [17alpha-Ethinylestradiol], the LEL in the series on rat [13] (setting [37]) was determined as 0.00012 mg/kg/day; with rat [14] (setting [39]) it was 0.005 mg/kg/day; with rat [14] (setting [40]), 0.005 mg/kg/day; in the series on rat [14] (setting [41]), 0.0025 mg/kg/day. In addition, the NEL with rat [13] (setting [37]) was under 0.00012 mg/kg/day; in the series on rat [14] (setting [39]), 0.0025 mg/kg/day; in the series on rat [14] (setting [40]), 0.0025 mg/kg/day; in the series with rat [14] (setting [41]), under 0.0025 mg/kg/day. The lowest-observed-adverse-effect level (LOAEL) was 0.00021 mg/kg/day in the series with rat [13] (setting [38]), over 0.005 mg/kg/day in the series on rat [14] (setting [39]), over 0.005 mg/kg/day in the series on rat [14] (setting [40]) and over 0.005 mg/kg/day in the series with rat [14] (setting [41]). In addition, the NOAEL with rat [13] (setting [38]) was under 0.00021 mg/kg/day; in the series on rat [14] (setting [39]) it was at least 0.005 mg/kg/day; with rat [14] (setting [40]), at least 0.005 mg/kg/day; in the series on rat [14] (setting [41]) it was at least 0.005 mg/kg/day.
